Data: patent US11591325B2, “2-polysubstituted aromatic ring-pyrimidine derivatives, preparation and medical application thereof” (ZHEJIANG UNIVERSITY, priority 2016, dated 2023)
Like-named read-outs stand apart in the source and are kept apart here.

What was measured:
[1] = molecular target: T1, Chk1 protein kinase (Homo sapiens, UniProt O14757); experiment: Chk1 enzyme inhibitory activity, ADP-Glo kit; type: biochemical
T1 sequence (O14757 1-476): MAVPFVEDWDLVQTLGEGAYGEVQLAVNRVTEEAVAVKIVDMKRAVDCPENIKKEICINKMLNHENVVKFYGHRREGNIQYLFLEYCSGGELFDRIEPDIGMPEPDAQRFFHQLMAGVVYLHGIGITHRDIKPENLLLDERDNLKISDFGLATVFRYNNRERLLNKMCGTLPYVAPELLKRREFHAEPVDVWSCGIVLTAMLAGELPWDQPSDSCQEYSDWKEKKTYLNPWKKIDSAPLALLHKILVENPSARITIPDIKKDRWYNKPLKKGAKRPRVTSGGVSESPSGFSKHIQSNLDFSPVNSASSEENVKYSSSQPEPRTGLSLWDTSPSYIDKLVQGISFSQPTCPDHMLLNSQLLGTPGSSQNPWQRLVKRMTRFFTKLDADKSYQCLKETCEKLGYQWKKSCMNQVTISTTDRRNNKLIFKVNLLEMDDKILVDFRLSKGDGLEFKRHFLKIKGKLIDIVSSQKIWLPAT
Description: With the Saurosporine as a positive control, the Chk1 enzyme inhibitory activity (IC50) was evaluated using the ADP-Glo kit. […] The phosphorylation process consumes ATP. After the reaction, ADP-Glo™ Reagent consumes the remaining ATP. The ADP produced during the reaction can be transformed by ADP-Glo Detection Reagent. For ATP, ATP acts as a substrate for the Ultra-Glo™ luciferase catalytic reaction, producing an optical signal. The test compound was dissolved in DMSO to make a 10 mM stock solution and diluted to 12 different concentrations in a certain ratio for testing. […] Incubate for 1 h, stop the reaction by adding 5 μL of ADP-Glo™ Reagent, and incubate for 1 h at 37° C. 10 μL of ADP-Glo Detection Reagent was added, incubated at 37° C. for 30 min, and three parallel wells were set for each sample. […] was measured by luminescence fluorescence microplate reader, and data were calculated using GraphPad Prism 5 software to calculate IC50 values.

[2] = system: Human lung cancer cell A549; experiment: MTS in vitro proliferation assay, A549; type: cell-based; conditions: 72 hours, average of three experiments
Description: (§1) The cells in the logarithmic growth phase were trypsinized, counted, and seeded at a density of 1×10^4 cells/well in a 96-well plate at 100 μL per well in a 37° C. incubator containing 5% CO2 overnight. For the culture, six concentration gradients were set for each compound, and three sets of duplicate wells were set for each concentration. After the addition, the cells were cultured for 72 hours, and 20 μL of MTS was added. After incubating for 2 hours at 37° C., the absorbance at 490 nm (L1) was measured with a SpectraMAX 340 microplate reader.

[3] = system: human colon cancer cell Colo205; experiment: MTS in vitro proliferation assay, Colo205; type: cell-based; conditions: COLO 205, 72 hours, average of three experiments
Description: as §1

[4] = system: human mantle cell lymphoma cells Jeko-1; experiment: MTS in vitro proliferation assay, Jeko-1; type: cell-based; conditions: 72 hours
Description: as §1

[5] = system: human multiple myeloma cells RPMI 8226; experiment: MTS in vitro proliferation assay, RPMI 8226; type: cell-based; conditions: 72 hours, read-out: IC50(μM) RPMI8226
Description: as §1

[6] = system: human prostate cancer cell LnCAP; experiment: MTS in vitro proliferation assay, LnCAP; type: cell-based; conditions: 72 hours, average of three experiments
Description: as §1

[7] = system: human gastric cancer cell BGC-823; experiment: MTS in vitro proliferation assay, BGC-823; type: cell-based; conditions: 72 hours, average of three experiments
Description: as §1

[8] = system: human ovarian cancer cell OVCAR-8; experiment: MTS in vitro proliferation assay, OVCAR-8; type: cell-based; conditions: 72 hours, average of three experiments
Description: as §1

[9] = system: human acute monocytic leukemia cells MV-4-11; experiment: MTS in vitro proliferation assay, MV-4-11; type: cell-based; conditions: MV4-11, 72 hours
Description: as §1

[10] = system: human colon cancer cell HCT116; experiment: MTS in vitro proliferation assay, HCT116; type: cell-based; conditions: HCT-116, 72 hours, average of three experiments
Description: as §1

[11] = system: human mantle cell lymphoma cells Mino; experiment: MTS in vitro proliferation assay, Mino; type: cell-based; conditions: 72 hours
Description: as §1

[12] = system: human lymphoma cells Romas; experiment: MTS in vitro proliferation assay, Romas; type: cell-based; conditions: 72 hours
Description: as §1

[13] = system: human breast cancer cells MCF-7; experiment: cells; conditions: MCF7, 72 h, read-out: IC50(μM) MCF-7
Description: as §1

[14] = Table 2 >10 μM or <1 μM, read-out: Chk1 IC50, bound with unit
[15] = Table 2 left column pair, numeric cells, read-out: Chk1 (IC50)

Row | IC50 [1, 14] [nM] | IC50 [1, 15] [nM] | Compound | IC50 [2] [µM] | IC50 [3] [µM] | IC50 [4] [µM] | IC50 [5] [µM] | IC50 [6] [µM] | IC50 [7] [µM] | IC50 [8] [µM] | IC50 [9] [µM] | IC50 [10] [µM] | IC50 [11] [µM] | IC50 [12] [µM] | IC50 [13] [µM]
1 | > 10000 | – | CNc1nc(Nc2cc(OC3CCNCC3)n(C)n2)ncc1-c1cnn(C)c1 [Compound 1, N^4-methyl-5-(1-methyl-1H-pyrazol-4-yl)-N^2-(1-methyl-5-(piperidin-4-yloxy)pyrazol-3-yl)-2,4-diaminopyrimidine] | – | – | – | – | – | – | – | – | – | – | – | –
2 | > 10000 | – | CNc1nc(Nc2cc(OC3CCNCC3)no2)ncc1-c1cnn(C)c1 [Compound 2, N^4-Methyl-5-(1-methyl-1H-pyrazol-4-yl)-N^2-(3-(piperidin-4-yloxy)isoxazol-5-yl)-2,4-diaminopyrimidine] | – | – | – | – | – | – | – | – | – | – | – | –
3 | > 10000 | – | CNc1nc(Nc2cn(C)c(OC3CCNCC3)n2)ncc1-c1cnn(C)c1 [Compound 3, N^4-Methyl-5-(1-methyl-1H-pyrazol-4-yl)-N^2-(1-methyl-2-(piperidin-4-yloxy)imidazol-4-yl)-2,4-diaminopyrimidine] | – | – | – | – | – | – | – | – | – | – | – | –
4 | > 10000 | – | CNc1nc(Nc2cc(OC3CCNCC3)ns2)ncc1-c1cnn(C)c1 [Compound 4, N^4-Methyl-5-(1-methyl-1H-pyrazol-4-yl)-N^2-(2-(piperidin-4-yloxy)isothiazol-5-yl)-2,4-diaminopyrimidine] | – | – | – | – | – | – | – | – | – | – | – | –
5 | > 10000 | – | CNc1nc(NC2CN=C(OC3CCNCC3)O2)ncc1-c1cnn(C)c1 (stereo not shown) [Compound 5, N^4-Methyl-5-(1-methyl-1H-pyrazol-4-yl)-N^2-(2-(piperidin-4-yloxy)-4,5-2H-oxazolin-5-yl)-2,4-diaminopyrimidine] | – | – | – | – | – | – | – | – | – | – | – | –
6 | > 10000 | – | CNc1nc(Nc2cnc(OC3CCNCC3)s2)ncc1-c1cnn(C)c1 [Compound 6, N^4-Methyl-5-(1-methyl-1H-pyrazol-4-yl)-N^2-(2-(piperidin-4-yloxy)thiazol-5-yl)-2,4-diaminopyrimidine] | – | – | – | – | – | – | – | – | – | – | – | –
7 | – | 8.8 | COc1nc(Nc2cnc(C#N)c(OCC3CCNCC3)c2)ncc1-c1cccc(F)c1 [Compound 17, 4-methoxy-5-(3-fluorophenyl)-N-(2-cyano-3-(piperidin-4-methyl)oxypyridin-5-yl)-2-aminopyrimidine] | 4.24 | 0.878 | 0.117 | 3.29 | > 10 | > 10 | 0.22 | 0.05 | 1.9 | 0.495 | 0.348 | –
8 | – | 1.8 | COc1nc(Nc2cnc(C#N)c(OCC3CCNCC3)c2)ncc1-c1cnn(C)c1 [Compound 18, 4-methoxy-5-(1-methyl-1H-pyrazol-4-yl)-N-(2-cyano-3-(piperidin-4-methyl)oxypyridin-5-yl)-2-aminopyrimidine] | 3.17 | 1.01 | – | – | 7 | 7.11 | 2.14 | 0.036 | 1.77 | – | – | –
9 | – | – | CNc1nc(Nc2cnc(C#N)c(OC3CCCNC3)c2)ncc1-c1cnn(C)c1 (stereo not shown) [Compound 32, N^4-Methyl-5-(1-methyl-1H-pyrazol-4-yl)-N^2-(2-cyano-3-(piperidin-3-yloxy)pyridin-5-yl)-2,4-diaminopyrimidine] | 5.17 | – | 0.189 | 8.18 | 6 | 7.64 | – | 0.064 | 4.18 | 0.859 | 0.789 | –
10 | – | – | CNc1nc(Nc2cnc(C#N)c(O[C@@H]3CCCNC3)c2)ncc1-c1cnn(C)c1 [Compound 35, (R)-N^4-methyl-5-(1-methyl-1H-pyrazol-4-yl)-N^2-(2-cyano-3-(piperidin-3-yloxy)pyridin-5-yl)-2,4-diaminopyrimidine] | 2.16 | 0.663 | 0.339 | 1.27 | 2.17 | 4.81 | 0.789 | 0.053 | 0.98 | 0.647 | 0.356 | 1.01
11 | – | – | CNc1nc(Nc2cnc(C#N)c(O[C@H]3CCCNC3)c2)ncc1-c1cnn(C)c1 [Compound 36, (S)-N^4-methyl-5-(1-methyl-1H-pyrazol-4-yl)-N^2-(2-cyano-3-(piperidin-3-yloxy)pyridin-5-yl)-2,4-diaminopyrimidine] | 5.74 | 2.18 | 0.548 | 2.49 | 4.89 | – | 4.18 | 0.072 | 2.55 | 0.956 | 0.649 | –
12 | – | – | CNc1nc(Nc2cnc(C#N)c(O[C@H](C)CN(C)C)c2)ncc1-c1cnn(C)c1 [Compound 41, (R)-N^4-methyl-5-(1-methyl-1H-pyrazol-4-yl)-N^2-(2-cyano-3-(1-dimethylaminopropyl-2-oxy)pyridin-5-yl)-2,4-diaminopyrimidine] | 2.17 | 0.993 | 0.094 | 0.945 | 2.62 | 5.17 | 1.19 | 0.034 | 1.31 | 0.473 | 0.119 | 1.01
13 | – | – | CNc1nc(Nc2cnc(C#N)c(O[C@@H](C)CN(C)C)c2)ncc1-c1cnn(C)c1 [Compound 42, (S)-N^4-methyl-5-(1-methyl-1H-pyrazol-4-yl)-N^2-(2-cyano-3-(1-dimethylaminopropyl-2-oxy)pyridin-5-yl)-2,4-diaminopyrimidine] | > 10 | 1.03 | 0.137 | 0.814 | 5.74 | – | 2.17 | 0.092 | 4.19 | 0.227 | 0.218 | –
14 | < 1000 | – | N#Cc1ncc(Nc2ncc(C(F)(F)F)cn2)cc1OC1CCCNC1 (stereo not shown) [Compound 45, 5-trifluoromethyl-N-(2-cyano-3-(piperidin-3-oxy)pyridin-5-yl)-2-aminopyrimidine] | – | – | – | – | – | – | – | – | – | – | – | –
15 | < 1000 | – | COc1nc(Nc2cnc(C#N)c(OCC3CCNCC3)c2)ncc1C(F)(F)F [Compound 46, 4-methoxy-5-trifluoromethyl-N-(2-cyano-3-(piperidin-4-methyl)oxypyridin-5-yl)-2-aminopyrimidine] | – | – | – | – | – | – | – | – | – | – | – | –
16 | < 1000 | – | CNc1nc(Nc2cnc(C#N)c(O[C@@H]3CCCNC3)c2)ncc1C(F)(F)F [Compound 47, (R)—N^4-methyl-5-trifluoromethyl-N^2-(2-cyano-3-(piperidin-3-oxy)pyridin-5-yl)-2,4-diaminopyrimidine] | – | – | – | – | – | – | – | – | – | – | – | –
